Active and inactive are the calls of the source. The calls are words filed in the database; no cut-off is given here.
How the values were obtained:
HCT-116 [1] = assay: Induction of apoptosis in human HCT-116 cells assessed as necrotic cells at 30 nM measured after 24 hrs by Annexin V-FITC/PI staining based flow cytometry method (reference value: 0.48 %); type: functional
HCT-116 [2] = assay: Induction of apoptosis in human HCT-116 cells assessed as early apoptotic cells at 30 nM measured after 24 hrs by Annexin V-FITC/PI staining based flow cytometry method (reference value: 4.65 %); type: functional
HCT-116 [3] = assay: Induction of apoptosis in human HCT-116 cells assessed as early apoptotic cells at 200 nM measured after 24 hrs by Annexin V-FITC/PI staining based flow cytometry method (reference value: 4.65 %); type: functional
[4] = Half life in Sprague-Dawley rat at 10 mg/kg, ip measured for 72 hrs by LC-MS/MS analysis; type: ADME, organism-based; conditions: in vivo
[5] = Half life in Sprague-Dawley rat at 5 mg/kg, iv measured for 72 hrs by LC-MS/MS analysis; type: ADME, organism-based; conditions: in vivo
[6] = Cmax in Sprague-Dawley rat at 10 mg/kg, ip measured for 72 hrs by LC-MS/MS analysis; type: ADME, organism-based; parameters: dose 10 mg/kg, time 72 hrs, route ip; conditions: in vivo
HCT-116 [7] = assay: Antitumor activity against human HCT-116 cells xenografted in BALB/c SPF mouse assessed as tumor growth inhibition at 100 mg/kg, ip administered BID for 21 days; type: functional; conditions: Mus musculus, HCT-116, 504 h, time 21 day, read-out: TGI
[8] = biological target: T1, Glutaminase kidney isoform, mitochondrial (Homo sapiens, UniProt O94925); assay: Binding affinity to human GLS1 assessed as dissociation constant by surface plasmon resonance analysis
T1 sequence (O94925 whole entry): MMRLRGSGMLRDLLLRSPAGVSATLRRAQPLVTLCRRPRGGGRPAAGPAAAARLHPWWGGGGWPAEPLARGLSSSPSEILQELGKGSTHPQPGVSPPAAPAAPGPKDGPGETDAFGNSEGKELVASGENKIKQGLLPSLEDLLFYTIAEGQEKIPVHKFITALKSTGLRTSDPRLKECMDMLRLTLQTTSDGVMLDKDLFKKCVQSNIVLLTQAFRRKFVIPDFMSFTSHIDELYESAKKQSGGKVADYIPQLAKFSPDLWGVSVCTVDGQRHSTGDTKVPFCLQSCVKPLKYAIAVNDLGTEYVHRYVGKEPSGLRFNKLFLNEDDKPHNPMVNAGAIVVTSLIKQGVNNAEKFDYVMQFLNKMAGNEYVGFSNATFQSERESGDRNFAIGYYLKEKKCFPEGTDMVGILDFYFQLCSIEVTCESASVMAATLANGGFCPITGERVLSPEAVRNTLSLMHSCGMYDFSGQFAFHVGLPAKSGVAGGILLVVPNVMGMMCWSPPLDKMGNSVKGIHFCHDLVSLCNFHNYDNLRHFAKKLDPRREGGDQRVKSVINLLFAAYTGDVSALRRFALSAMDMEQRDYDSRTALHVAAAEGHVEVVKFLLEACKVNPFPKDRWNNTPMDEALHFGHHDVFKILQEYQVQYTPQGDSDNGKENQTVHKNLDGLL

[9] = biological target: T2, Glutaminase kidney isoform, mitochondrial (Homo sapiens) (UniProt O94925); conditions: HCT-116, filed as negative allosteric modulator, dose 100-300 nM, time 12.0 hrs
T2 sequence (whole entry): T1 sequence (O94925 whole entry)

[10] = Toxicity in BALB/c SPF mouse xenografted with human HCT-116 cells assessed as body weight loss at 50 to 100 mg/kg, ip administered BID for 21 days; type: organism-based; conditions: in vivo, 504 h, dose 50-100 mg/kg, time 21 day
HCT-116 [11] = assay: Induction of apoptosis in human HCT-116 cells assessed as necrotic cells at 200 nM measured after 24 hrs by Annexin V-FITC/PI staining based flow cytometry method (reference value: 0.48 %); type: functional
[12] = Apparent volume of distribution in Sprague-Dawley rat at 5 mg/kg, iv measured for 72 hrs by LC-MS/MS analysis; type: ADME, organism-based; conditions: in vivo
[13] = AUC (0 to infinity) in Sprague-Dawley rat at 10 mg/kg, ip measured for 72 hrs by LC-MS/MS analysis; type: ADME, organism-based; parameters: dose 10 mg/kg, time 72 hrs, route ip; conditions: in vivo
[14] = AUC (0 to t) in Sprague-Dawley rat at 5 mg/kg, iv measured for 72 hrs by LC-MS/MS analysis; type: ADME, organism-based; parameters: dose 5 mg/kg, time 72 hrs, route iv; conditions: in vivo
[15] = biological target: T2, Glutaminase kidney isoform, mitochondrial (Homo sapiens); conditions: HCT-116, filed as negative allosteric modulator, dose 100-300 nM, time 12.0 hrs; remark: listed apart in the source
[16] = AUC (0 to t) in Sprague-Dawley rat at 10 mg/kg, ip measured for 72 hrs by LC-MS/MS analysis; type: ADME, organism-based; parameters: time 72 hrs, dose 10 mg/kg, route ip; conditions: in vivo
[17] = biological target: T2, Glutaminase kidney isoform, mitochondrial (Homo sapiens); conditions: HCT-116, filed as negative allosteric modulator, dose 100-300 nM, time 12.0 hrs; remark: listed apart in the source
[18] = biological target: T2, Glutaminase kidney isoform, mitochondrial (Homo sapiens); conditions: HCT-116, filed as negative allosteric modulator, dose 100-300 nM, time 12.0 hrs; remark: listed apart in the source

- half-life [4]: 8.92 h
- half-life [5]: 7.44 h
- Cmax [6]: 262 ng/mL
- Kd [8]: 0.052 µM
- inhibition [9]: Active
- Vd/F [12]: 7.31 L/kg
- AUC(0-inf) [13]: 3490 ng·h/mL
- AUC(0-t) at 72 h [14]: 6930 ng·h/mL
- inhibition [15]: Active
- AUC(0-t) at 72 h [16]: 2900 ng·h/mL
- inhibition [17]: Active
- inhibition [18]: Active
SMILES: O=C(Cc1ccccc1)Nc1nnc(NC2CCN(c3nnc(NC(=O)c4nccn4Cc4ccc(C(F)(F)F)cc4)s3)CC2)s1
- Activity (HCT-116 [1]): 0.048%
- Activity (HCT-116 [2]): 13.6%
- Activity (HCT-116 [3]): 82.49%
- inhibition in vivo at 100 mg/kg (HCT-116 [7]): 47.5%
- Activity [10]: Non-Toxic
- Activity (HCT-116 [11]): 0.02%

Source: ChEMBL document CHEMBL5154870, “Discovery of novel glutaminase 1 allosteric inhibitor with 4-piperidinamine linker and aromatic heterocycles” (Eur J Med Chem, 2022)
